Source: publication PMC9120017, “Inhibition mechanism of the chloride channel TMEM16A by the pore blocker 1PBC” (Nature Communications, 2022)
Like-named read-outs stand apart in the source and are kept apart here.

Biological target: T1, mouse TMEM16A mutant V599A (Mus musculus, UniProt Q8BHY3, V599A)
T1 construct: expressed in transfected cells; host or cells: HEK293T
T1 sequence (Q8BHY3 1-960 V599A): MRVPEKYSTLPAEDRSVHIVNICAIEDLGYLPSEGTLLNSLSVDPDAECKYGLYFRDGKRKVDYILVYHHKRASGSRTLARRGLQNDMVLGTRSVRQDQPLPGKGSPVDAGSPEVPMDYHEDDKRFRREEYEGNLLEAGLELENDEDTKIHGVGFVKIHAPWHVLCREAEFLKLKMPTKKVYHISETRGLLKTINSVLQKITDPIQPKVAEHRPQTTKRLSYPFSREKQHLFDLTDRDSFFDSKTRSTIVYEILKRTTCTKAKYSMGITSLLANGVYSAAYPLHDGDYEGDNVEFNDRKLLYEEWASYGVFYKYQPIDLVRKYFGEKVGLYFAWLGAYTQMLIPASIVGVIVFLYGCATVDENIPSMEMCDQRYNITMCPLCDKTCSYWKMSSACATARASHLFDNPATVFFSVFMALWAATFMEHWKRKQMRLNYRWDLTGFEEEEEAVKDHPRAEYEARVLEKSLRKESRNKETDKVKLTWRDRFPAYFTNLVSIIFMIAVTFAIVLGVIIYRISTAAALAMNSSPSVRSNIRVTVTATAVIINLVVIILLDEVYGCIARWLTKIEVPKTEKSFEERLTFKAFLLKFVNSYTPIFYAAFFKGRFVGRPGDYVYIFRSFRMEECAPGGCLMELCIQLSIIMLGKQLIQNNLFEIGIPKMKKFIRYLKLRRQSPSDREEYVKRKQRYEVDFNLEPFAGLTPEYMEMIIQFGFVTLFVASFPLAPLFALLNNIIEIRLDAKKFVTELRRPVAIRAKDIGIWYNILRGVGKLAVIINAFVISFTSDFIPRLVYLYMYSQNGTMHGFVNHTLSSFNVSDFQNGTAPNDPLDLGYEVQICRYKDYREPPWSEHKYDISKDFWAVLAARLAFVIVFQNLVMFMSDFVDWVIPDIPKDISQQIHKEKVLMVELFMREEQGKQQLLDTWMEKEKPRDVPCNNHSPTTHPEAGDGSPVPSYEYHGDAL
Experiment: Inside-out patch recording of 1PBC block, mutant V599A
Format: cell-based
Settings: for IC50: 15 µM Ca2+
Experimental: HEK293T cells (ATCC CRL-1573) were maintained in Dulbecco’s modified Eagle’s medium (DMEM; Sigma-Aldrich) supplemented with 10 U ml^−1 penicillin, 0.1 mg ml^−1 streptomycin (Sigma-Aldrich), 2 mM L-glutamine (Sigma-Aldrich), and 10% FBS (Sigma-Aldrich) in a humidified atmosphere containing 5% CO2 at 37 °C. HEK293S GnTI^− cells (ATCC CRL-3022) were maintained in HyClone HyCell TransFx-H medium (GE Healthcare) supplemented with 10 U ml^−1 penicillin, 0.1 mg ml^−1 streptomycin, 4 mM L-glutamine, 0.15% poloxamer 188 (Sigma-Aldrich), and 1% FBS in an atmosphere containing 5% CO2 at 185 rpm at 37 °C. The ac splice variant of mouse TMEM16A (UniProt ID: Q8BHY3), mouse TMEM16B (UniProt ID: Q8CFW1), or mouse TMEM16F (UniProt ID: Q6P9J9) bearing a 3C cleavage site, a Venus YFP, a Myc tag, and a Streptavidin-binding peptide (SBP) downstream of the open reading frame in a modified pcDNA3.1 vector (Invitrogen) were used as described previously[21],[31]. Mutations were introduced using a modified QuikChange method[58] and were verified by sequencing.
HEK293T cells were transfected with 3–4 μg DNA per 6 cm Petri dish using the calcium phosphate co-precipitation method and were used within 24–96 h after transfection. Recordings were performed on inside-out patches excised from HEK293T cells expressing the construct of interest. Patch pipettes were pulled from borosilicate glass capillaries (O.D. 1.5 mm, I.D. 0.86 mm, Sutter Instrument) and were fire-polished with a microforge (Narishige) before use. Pipette resistance was typically 3–8 MΩ when filled with the recording solutions detailed below. Seal resistance was typically 4 GΩ or higher. Voltage-clamp recordings were made using Axopatch 200B, Digidata 1550, and Clampex 10.7 (Molecular Devices). Analog signals were filtered with the in-built 4-pole Bessel filter at 10 kHz and were digitized at 20 kHz. Solution exchange was achieved using a gravity-fed system through a theta glass pipette mounted on an ultra-fast piezo-driven stepper (Siskiyou). […] All recordings were performed at 20 °C.
A symmetrical ionic condition was used throughout. Stock solution with Ca^2+-EGTA contained 150 mM NaCl, 5.99 mM Ca(OH)2, 5 mM EGTA, and 10 mM HEPES at pH 7.40. Stock solution with EGTA contained 150 mM NaCl, 5 mM EGTA, and 10 mM HEPES at pH 7.40. Free Ca^2+ concentrations were adjusted by mixing the stock solutions at the required ratios calculated using the WEBMAXC program (http://web.stanford.edu/~cpatton/webmaxcS.htm). Patch pipettes were filled with the stock solution with Ca^2+-EGTA, which has a free Ca^2+ concentration of 1 mM. 1PBC (ChemBridge) stock was reconstituted in anhydrous DMSO (Sigma-Aldrich) at 100 mM and stored at −20 °C. Working solutions with 1PBC were prepared by serial dilution. Unless otherwise stated, experiments were performed at a saturating Ca^2+ concentration as shown in Supplementary Table 1 and the primary data were corrected for current rundown as described previously[21],[25].
Concentration-response relations, obtained from the ratio of the I-V plots before and after the application of the blocker, were fitted to the Hill equation,1 I/Imax=1/1+IC50/[blocker]^h where I/Imax is the normalized current responses, IC50 defines the concentration at which inhibition is at its half-maximum, and h is the Hill coefficient.

SMILES: N#Cc1c(C(F)(F)F)cc(O)n2c1nc1ccccc12 [1PBC]
- IC50 (0 mV): 69.5 µM
- remaining activity at 3 µM (0 mV, 1PBC conc 3, read-out: relative current in 1PBC (avr)): 93.5%
- remaining activity at 10 µM (0 mV, 1PBC conc 10, read-out: relative current in 1PBC (avr)): 87.7%
- remaining activity at 30 µM (0 mV, 1PBC conc 30, read-out: relative current in 1PBC (avr)): 72%
- remaining activity at 100 µM (0 mV, 1PBC conc 100, read-out: relative current in 1PBC (avr)): 39.4%
- remaining activity at 3 µM (3 µM 1PBC, +80 mV, saturating Ca2+ (15 µM), read-out: I/Imax): 93.3%
- remaining activity at 3 µM (3 µM 1PBC, -80 mV, saturating Ca2+ (15 µM), read-out: I/Imax): 94.9%
- remaining activity at 10 µM (10 µM 1PBC, +80 mV, saturating Ca2+ (15 µM), read-out: I/Imax): 84%
- remaining activity at 10 µM (10 µM 1PBC, -80 mV, saturating Ca2+ (15 µM), read-out: I/Imax): 91.7%
- remaining activity at 30 µM (30 µM 1PBC, +80 mV, saturating Ca2+ (15 µM), read-out: I/Imax): 62.6%
- remaining activity at 30 µM (30 µM 1PBC, -80 mV, saturating Ca2+ (15 µM), read-out: I/Imax): 78.1%
- remaining activity at 100 µM (100 µM 1PBC, +80 mV, saturating Ca2+ (15 µM), read-out: I/Imax): 27.8%
- remaining activity at 100 µM (100 µM 1PBC, -80 mV, saturating Ca2+ (15 µM), read-out: I/Imax): 50.8%
- IC50 (20 mV): 61.3 µM
- remaining activity at 3 µM (20 mV, 1PBC conc 3, read-out: relative current in 1PBC (avr)): 93.3%
- remaining activity at 10 µM (20 mV, 1PBC conc 10, read-out: relative current in 1PBC (avr)): 86.6%
- remaining activity at 30 µM (20 mV, 1PBC conc 30, read-out: relative current in 1PBC (avr)): 69.3%
- remaining activity at 100 µM (20 mV, 1PBC conc 100, read-out: relative current in 1PBC (avr)): 36%
- IC50 (40 mV): 55.5 µM
- remaining activity at 3 µM (40 mV, 1PBC conc 3, read-out: relative current in 1PBC (avr)): 93.6%
- remaining activity at 10 µM (40 mV, 1PBC conc 10, read-out: relative current in 1PBC (avr)): 86.2%
- remaining activity at 30 µM (40 mV, 1PBC conc 30, read-out: relative current in 1PBC (avr)): 67.1%
- remaining activity at 100 µM (40 mV, 1PBC conc 100, read-out: relative current in 1PBC (avr)): 32.9%
- IC50 (60 mV): 48.9 µM
- remaining activity at 3 µM (60 mV, 1PBC conc 3, read-out: relative current in 1PBC (avr)): 92.4%
- remaining activity at 10 µM (60 mV, 1PBC conc 10, read-out: relative current in 1PBC (avr)): 84.6%
- remaining activity at 30 µM (60 mV, 1PBC conc 30, read-out: relative current in 1PBC (avr)): 64.2%
- remaining activity at 100 µM (60 mV, 1PBC conc 100, read-out: relative current in 1PBC (avr)): 30%
- log-fold IC50 (change of mutant vs WT) (80 mV): 1.35
- IC50 (80 mV): 45.8 µM
- remaining activity at 3 µM (80 mV, 1PBC conc 3, read-out: relative current in 1PBC (avr)): 93.3%
- remaining activity at 10 µM (80 mV, 1PBC conc 10, read-out: relative current in 1PBC (avr)): 84%
- remaining activity at 30 µM (80 mV, 1PBC conc 30, read-out: relative current in 1PBC (avr)): 62.6%
- remaining activity at 100 µM (80 mV, 1PBC conc 100, read-out: relative current in 1PBC (avr)): 27.8%
- IC50 (100 mV): 45 µM
- remaining activity at 3 µM (100 mV, 1PBC conc 3, read-out: relative current in 1PBC (avr)): 94.2%
- remaining activity at 10 µM (100 mV, 1PBC conc 10, read-out: relative current in 1PBC (avr)): 83.7%
- remaining activity at 30 µM (100 mV, 1PBC conc 30, read-out: relative current in 1PBC (avr)): 62.5%
- remaining activity at 100 µM (100 mV, 1PBC conc 100, read-out: relative current in 1PBC (avr)): 26.8%
- IC50 (120 mV): 45.1 µM
- remaining activity at 3 µM (120 mV, 1PBC conc 3, read-out: relative current in 1PBC (avr)): 95.5%
- remaining activity at 10 µM (120 mV, 1PBC conc 10, read-out: relative current in 1PBC (avr)): 83.7%
- remaining activity at 30 µM (120 mV, 1PBC conc 30, read-out: relative current in 1PBC (avr)): 62.1%
- remaining activity at 100 µM (120 mV, 1PBC conc 100, read-out: relative current in 1PBC (avr)): 27%
- IC50 (140 mV): 48.5 µM
- remaining activity at 3 µM (140 mV, 1PBC conc 3, read-out: relative current in 1PBC (avr)): 97.8%
- remaining activity at 10 µM (140 mV, 1PBC conc 10, read-out: relative current in 1PBC (avr)): 86.2%
- remaining activity at 30 µM (140 mV, 1PBC conc 30, read-out: relative current in 1PBC (avr)): 63.1%
- remaining activity at 100 µM (140 mV, 1PBC conc 100, read-out: relative current in 1PBC (avr)): 28.2%
